“And” between values parts separate entries of the source, which are not always exact repeats. Identical values can stand only once.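 Five concentrations, 48 hours, 96-well plates. At the GI50, growth is halved. At the TGI there is no net growth.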

Some test systems named below: DLD-1 colon; LXFL 529 NSCLC; M19-MEL melanoma; DMS 114 small cell lung; HOP-18 NSCLC; RXF-631 renal; DMS 273 small cell lung; MDA-N; XF 498 CNS.
What all share (assay): growth of human tumour cells (NCI), 48 h

Regarding `CC1=CC(N2C(=O)C(C)=CC2O)NC1=O` (stereo not drawn), the TGI in the experiment with DLD-1 colon, with LXFL 529 NSCLC and in the experiment with M19-MEL melanoma was > 100 µM each time.

Turning to `N/N=c1\c2ccccc2c2cc3c(cc12)/c(=N/N)c1ccccc13`, the TGI in the experiment with DLD-1 colon, in the experiment with LXFL 529 NSCLC, in the experiment on DMS 114 small cell lung, in the experiment with HOP-18 NSCLC, in the experiment on RXF-631 renal and in the experiment with DMS 273 small cell lung was > 100 µM throughout. Besides, in the experiment with M19-MEL melanoma, the TGI is > 100 µM.

As to `Cc1c(O)c2c(c(O)c1Br)C(=O)C=CC2=O`, in the experiment with MDA-N, the GI50 is 0.63 µM; the TGI was 0.615 µM and 2.08 µM.

Turning to `Cc1ccc(NC(=O)/C(Cl)=C(/Cl)C(=O)O)cc1`, the TGI in the experiment with DLD-1 colon came out at 33.5 µM; with LXFL 529 NSCLC, 26.6 µM; with DMS 114 small cell lung, 34.2 µM; with HOP-18 NSCLC, 34.7 µM; in the experiment with RXF-631 renal, 49.8 µM; in the experiment on DMS 273 small cell lung it was 41.7 µM. Besides, the TGI in the experiment on M19-MEL melanoma turned out to be 29.5 µM.

Take `Cc1ccc2c(c1)S(=O)(=O)c1ccc3ccccc3c1N2`: the TGI in the experiment with MDA-N was > 100 µM.

Take `CC1OC(OC2C(OC3CCC4(C)C(CCC5(C)C4CC=C4C6CC(C)(C)CCC6(C(=O)O)CCC45C)C3(C)CO)OCC(O)C2O)C(O)C(O)C1O` (stereo not drawn): the TGI in the experiment with MDA-N was 39.9 µM.

Consider `Cc1ccccc1-n1c2nc(=O)n(C)c(=O)c-2nc2ccccc21`, for which the TGI in the experiment on XF 498 CNS was found to be 31.3 µM; with DLD-1 colon, 42.4 µM; in the experiment with LXFL 529 NSCLC it was 26.3 µM; in the experiment with DMS 114 small cell lung it was 18.3 µM; with HOP-18 NSCLC it was 24.2 µM; in the experiment with RXF-631 renal it was 36.3 µM. In addition, the TGI in the experiment on DMS 273 small cell lung was 26.7 µM; in the experiment with M19-MEL melanoma, 3.84 µM.

Turning to `NCCNCc1c2ccccc2c(CNCCN)c2ccccc12`, the TGI in the experiment with DLD-1 colon was > 100 µM; with LXFL 529 NSCLC, 22.1 µM; in the experiment with DMS 114 small cell lung, 33.1 µM; in the experiment with HOP-18 NSCLC it was 90.1 µM; in the experiment with RXF-631 renal it was > 100 µM; with M19-MEL melanoma, 84.4 µM.

With `NCC1OC(OC2C(CO)OC(OC3C(O)C(N)CC(N)C3OC3OC(CO)C(O)CC3N)C2O)C(N)C(O)C1OC1OC(CO)C(O)C(O)C1O` (stereo not drawn), in the experiment with MDA-N, the GI50 is > 50 µg/mL and the TGI is > 50 µg/mL.

For the molecule `COc1ccc2nc3cc(Cl)ccc3c(Sc3ccc([N+](=O)[O-])cc3)c2c1`, the GI50 in the experiment on XF 498 CNS, in the experiment on DLD-1 colon, in the experiment on LXFL 529 NSCLC, with DMS 114 small cell lung, with HOP-18 NSCLC and in the experiment with RXF-631 renal was > 100 µM in each case. The GI50 in the experiment on DMS 273 small cell lung and in the experiment on M19-MEL melanoma was > 100 µM throughout. In addition, the TGI with XF 498 CNS, in the experiment on DLD-1 colon, in the experiment on LXFL 529 NSCLC, in the experiment with DMS 114 small cell lung, in the experiment with HOP-18 NSCLC and in the experiment on RXF-631 renal was > 100 µM each time. Besides, the TGI in the experiment with DMS 273 small cell lung and in the experiment on M19-MEL melanoma was > 100 µM each time.

Consider `CC(=O)NC1C(OCc2ccccc2)OC(COC(=O)CCCCCCCCCCNc2ccc([N+](=O)[O-])c3[nH]c4ccccc4c(=O)c23)C(O)C1OC(C)C(=O)NC(C)C(=O)NC(CCC(N)=O)C(=O)OCc1ccccc1` (stereo not drawn), for which the TGI in the experiment on XF 498 CNS, in the experiment on DLD-1 colon, in the experiment with LXFL 529 NSCLC, in the experiment with DMS 114 small cell lung, with HOP-18 NSCLC and in the experiment on DMS 273 small cell lung was > 100 µM throughout. Moreover, the TGI with M19-MEL melanoma was > 100 µM.

For the molecule `COC(=O)C1=C(C(=O)OC)C2(C)Nc3ccccc3C2=C(c2ccccc2)C1` (stereo not drawn), the TGI with XF 498 CNS is 27 µM; in the experiment on DLD-1 colon, > 100 µM; in the experiment with LXFL 529 NSCLC it was 32.1 µM; in the experiment on DMS 114 small cell lung, 44.4 µM; in the experiment with DMS 273 small cell lung it was 43.7 µM; in the experiment on M19-MEL melanoma it was 46 µM.

For the molecule `c1ccc2c(c1)N=C(c1cccc3ccccc13)CC(c1ccc3c(c1)OCO3)S2` (stereo not drawn), the TGI in the experiment with XF 498 CNS, in the experiment with DLD-1 colon, in the experiment on LXFL 529 NSCLC, with HOP-18 NSCLC, in the experiment with RXF-631 renal and in the experiment on DMS 273 small cell lung was > 100 µM throughout. In the experiment with M19-MEL melanoma, the TGI is > 100 µM.

Consider `CC(C)NC(=O)CCN(C(=O)O)S(=O)(=O)c1ccc(NC(=O)c2ccccc2)cc1`, for which the TGI was > 100 µM in the experiment on XF 498 CNS; > 72.6 µM in the experiment with DLD-1 colon; > 100 µM with LXFL 529 NSCLC; > 54.3 µM in the experiment with DMS 114 small cell lung; > 100 µM in the experiment with HOP-18 NSCLC; > 100 µM in the experiment on RXF-631 renal. The results for the TGI with DMS 273 small cell lung and with M19-MEL melanoma were > 56.7 µM and > 89.2 µM, respectively.

As to `CC(=O)OC12COC1CC(O)C1(C)C(=O)C(O)C3=C(C)C(O)CC(O)(C(OC(=O)c4ccccc4)C21)C3(C)C` (stereo not drawn), the TGI with XF 498 CNS was > 100 µM; in the experiment on DMS 273 small cell lung, 17.6 µM; in the experiment with M19-MEL melanoma, > 100 µM.

For `O=C(O)c1ccc(C(=O)O)c(C(=O)Nc2ccc3c(c2)C(=O)c2ccccc2-3)c1`, in the experiment on MDA-N, the TGI was > 100 µM.

On to `O=C1c2cc([N+](=O)[O-])ccc2-c2ccc3c4ccc5c6c(ccc(c7ccc1c2c73)c64)C(=O)c1cc([N+](=O)[O-])ccc1-5`, for which the TGI with MDA-N was > 100 µM.

With `CN1CCN(C)C12C=CC=CC21CC1`, the TGI in the experiment on XF 498 CNS, in the experiment with DLD-1 colon, with DMS 114 small cell lung, with HOP-18 NSCLC, with RXF-631 renal and with DMS 273 small cell lung was > 100 µM each time. Also, the TGI with M19-MEL melanoma was > 100 µM.

The record behind these values is PubChem BioAssay (NCI).
